Assay [1] concerns MMP-1 (Matrix Metalloproteinase-1) production. In words: Glucocorticoid inhibition of IL-1 induced MMP-1 production in SW1353 human chondrosarcoma cells. The format is cell-based. As to conditions: 20 ng/ml IL-1 beta, 72 hours after IL-1 addition, ELISA, read-out: IC50, inhibition of MMP1 expression. As for the experimental part: (§1) This assay, the glucocorticoid inhibition of IL-1 (Interleukin-1) induced MMP-1 (Matrix Metalloproteinase-1) and IL-8 (Interleukin-8) production in human chondrosarcoma cells, is conducted as follows: SW1353 human chondrosarcoma cells (obtained from ATCC) from passage 12 through passage 19 are used in a 96 well format assay. Cells are plated at confluence into 96 well plates in DMEM (Dulbecco's Modified Eagle Medium) with 10% fetal bovine serum and incubated at 37° C., 5% CO2. After 24 hours, serum containing media is removed and replaced with 200 ul/well DMEM containing 1 mg/L insulin, 2 g/L lactalbumin hydrosylate, and 0.5 mg/L ascorbic acid and returned to incubation at 37° C., 5% CO2. […] IL-8 production is assessed using the Quantikine human IL-8 ELISA kit from R&D Systems (D8050) on samples diluted 60-fold in RD5P Calibrator Diluent, following the manufacturer's protocol. The percent of the average IL-1 control is determined for the average of each of the triplicate samples following subtraction of the average signal from untreated cells. IC50's are determined from log linear plots of the percent of control versus the concentration of inhibitor. […] MMP-1 production is assessed via the Bio-Trak MMP-1 ELISA kit from Amersham (RPN2610) on 100 ul of neat sample following the manufacturer's protocol. […]
On the technique in general: In an ELISA, binding on a coated surface is turned into a signal by an enzyme label.

Assay [2] has as its system IL-8 (Interleukin-8) production. As to the kind of experiment: Glucocorticoid inhibition of IL-1 induced IL-8 production in SW1353 human chondrosarcoma cells. As to conditions: 20 ng/ml IL-1 beta, 24 hours after IL-1 addition, ELISA, read-out: IC50, inhibition of IL-8 expression. The format is cell-based. As for the experimental part:
as §1

With `C[C@@H]1C[C@H]2[C@@H]3CCC4=CC(=O)C=C[C@]4(C)[C@@]3(F)[C@@H](O)C[C@]2(C)[C@@]1(O)C(=O)CO` [Dexamethasone], the concentration for half-maximal inhibition (IC50) in assay [1] and in assay [2] was 5 nM each time.

Usually IC50 stands for the concentration that inhibits the measured activity by half.

The record behind these values is US20070129410A1, “Octahydrophenanthrene hydrazinde derivatives useful as glucocorticoid receptor modulators” (Pfizer Inc., priority 2003, published 2007).
